{"source": "patent US6809112B2", "about": "“Method of treating sexual disturbances” (priority 1999, dated 2004)", "key": {"[1]": {"tested_on": "patient with Female Sexual Arousal Disorder", "assay": "Treatment of Female Sexual Arousal Disorder in a patient (Examples B, J)", "type": "in vivo, human", "conditions": "3 mg/dose 0.5-1 hr before sexual activity; examined after one month; patient report", "from_the_text": "A 64 kg, patient is complaining of vaginal dryness and mild discomfort during sexual intercourse. The patient recently began a relationship with a person. Their partner complained of their vaginal dryness and poor vaginal expansion during sexual intercourse. Their partner has made several comments about this during the previous two months and the patient is concerned that their partner is dissatisfied with their lack of sexual responsiveness and may end the relationship. The patient reports that they desire to continue the relationship. The patient has had several previous sexual relationships. They report that vaginal dryness and some discomfort with vaginal intercourse has occurred during their past sexual relationships. […] They find their current partner attractive and sexual desirable. […] During these episodes they usually have an orgasm. Lubrication is not a problem when they masturbate. […] They currently take no prescription drugs other than low dose birth control pills. […] The patient is diagnosed as having Female Sexual Arousal Disorder that is situational due to psychological factors (Diagnostic and Statistical Manual of Mental Disorders, Fourth Edition, 1994). (5R)-(methylamino)-5,6-dihydro-4H-imidazo[4,5,1-ij]quinolin-2(1H)-one (Z)-2-butenedioate (1:1) is prescribed at 3 mg/dose to be taken 0.5-1 hr before the patient intends to engage in sexual activity. The patient is instructed that they may use the drug on a daily basis, if this is the intended frequency of sexual activity. The patient is examined after one month. They report that they use the drug prior to intercourse. […] The patient is instructed to continue using the drug."}, "[2]": {"tested_on": "male and female Giant Pandas", "assay": "Mating of animals of commercial value (Examples F, N)", "type": "in vivo, Giant Panda", "conditions": "0.05 mg of free base equivalents per kilogram of body weight in diet, one occasion; for induction of mating (treatment effect): one hour after ingesting", "from_the_text": "An adult male Giant Panda on temporary loan from a foreign zoo is desired to have breed to an adult female Giant Panda which is normally resident at the zoo. Because of the commercial value of a potential off-spring it is desirable that the animals mate during the time the adult male is on loan. […] As an alternative to anesthetizing the animals for a facilitated transfer of semen between the animals, the male and female Giant Pandas have (5R)-(methylamino)-5,6-dihydro-4H-imidazo[4,5,1-ij]quinolin-2(1H)-one (Z)-2-butenedioate (II) added to their diet on one occasion. The concentration of drug in the diet is calculated to deliver 0.05 mg of free base equivalents of (5R)-(methylamino)-5,6-dihydro-4H-imidazo[4,5,1-ij]quinolin-2(1H)-one (Z)-2-butenedioate (1:1) per kilogram of body weight."}, "[3]": {"tested_on": "patient with idiopathic epilepsy and hypogonadism, secondary to chronic carbamazepine treatment", "assay": "Treatment of reduced sexual function in a person with idiopathic epilepsy (Examples G, O)", "type": "in vivo, human", "conditions": "3 mg/dose 0.5 hr before sexual activity, 2-3 times per week; carbamazepine 500 mg/day; examined after one month", "experimental": "A 75 kg patient has idiopathic epilepsy. They first presented with primary generalized seizures and was diagnosed with idiopathic epilepsy. They have been treated with carbamazepine. Currently they receive 500 mg/day of the drug. They have had two tonic-clonic seizures during the preceding year. The patient complains of diminished sexual interest in their spouse of 8 years. On those occasions when they attempt sexual intercourse, they are able to maintain an erection sufficient for intercourse one-third of the time. […] They report that they rarely have sexual fantasies and rarely masturbates. […] They currently take no prescription drugs other than carbamazepine. […] Plasma testosterone and sex hormone binding globulin assays are performed. The plasma testosterone level is 25 nM, which is considered normal. The plasma sex hormone binding globulin level is 55 nM, which is considered elevated compared to the normal range. The patient is diagnosed with hypogonadism, secondary to chronic carbamazepine treatment (Epilepsia 36: 366-370, 1995). (5R)-(methylamino)-5,6-dihydro-4H-imidazo[4,5,1-ij]quinolin-2(1H)-one (Z)-2-butenedioate (1:1) is prescribed at 3 mg/dose to be taken 0.5 hr before the patient intends to engage in sexual activity. The patient is instructed that they may use the drug on a daily basis, if this is the intended frequency of sexual activity. The patient is examined after one month. They report that they take the drug 2-3 times per week. […] The patient is instructed to continue with the treatment."}, "[4]": {"tested_on": "patient with erectile dysfunction and hypoactive sexual desire disorder", "assay": "Treatment of patient with erectile dysfunction and Hypoactive Sexual Desire Disorder, combination with sildenafil (Examples H, P)", "type": "in vivo, human", "conditions": "3 mg/dose in combination with sildenafil (VIAGRA Tablets) 50 mg/dose, orally about 0.5 hr before sexual activity, 2-3 times per week; after one month", "from_the_text": "A 70 kg patient is apparently in good health. They present complaining of a loss of sexual desire and frequent erectile dysfunction since taking an executive position in their company, six weeks previously. They report that they work long hours and feels a high degree of pressure associated with their job. They are frustrated and angry that when they take time off from work they are unable to have an intimate relationship with their spouse. They report that although they are periodically interested in initiating sexual relations, on most occasions they are unable to maintain a high level of interest sufficiently long to initiate or to adequately respond to their spouse's initiating sexual activity. […] They develop a semi-rigid erection at the beginning of sexual activity but detumescence occurs when they attempt penetration. They report that they have few erotic fantasies. They have not masturbated for the past several months. They attribute this to a lack of motivation and interest. […] (5R)-(methylamino)-5,6-dihydro-4H-imidazo[4,5,1-ij]quinolin-2(1H)-one (Z)-2-butenedioate (1:1), 3 mg/dose, and sildenafil (VIAGRA Tablets), 50 mg/dose, are both prescribed. Each is to be taken orally about 0.5 hr before the patient intends to engage in sexual activity. The patient is instructed that they may use the drug combination on a daily basis, if this is the intended frequency of sexual activity. The patient is examined after one month. They report that they take the drug combination 2-3 times per week. […] The patient is advised to continue taking the (5R)-(methylamino)-5,6-dihydro-4H-imidazo[4,5,1-ij]quinolin-2(1H)-one (Z)-2-butenedioate (1:1) for another six months as they adapt to the situational stress associated with their new job. After this time they are advised to stop taking the drug for a period of two weeks to determine whether their sexual motivation and desire have returned to the level they enjoyed prior to the change in jobs."}}, "data": [{"smiles": "CN[C@@H]1Cc2cccc3[nH]c(=S)n(c23)C1", "note": "[(5R)-5-(Methylamino)-5,6-dihydro-4H-imidazo[4,5,1-ij]quinoline-2(1H)-thione]", "values": [{"measurement": "treatment effect (sexual relationship)", "setting": "[1]", "value": "same positive treatment effect"}, {"measurement": "induction of mating (treatment effect)", "setting": "[2]", "value": "same positive treatment effect"}, {"measurement": "treatment effect (sexual relationship)", "setting": "[3]", "value": "same positive treatment effect"}, {"measurement": "treatment effect (sexual relationship)", "setting": "[4]", "value": "same positive treatment effect"}, {"measurement": "melting point", "value": "210 to 213", "unit": "°C"}]}, {"smiles": "CN[C@@H]1Cc2cccc3[nH]c(=O)n(c23)C1.O=C(O)/C=C\\C(=O)O", "note": "[(5R)-(methylamino)-5,6-dihydro-4H-imidazo[4,5,1-ij]quinolin-2(1H)-one (Z)-2-butenedioate (1:1)]", "values": [{"measurement": "pain during initiation of vaginal penetration", "setting": "[1]", "value": "no longer has pain"}, {"measurement": "treatment effect (sexual relationship)", "setting": "[1]", "value": "enjoys an improved sexual relationship with their partner"}, {"measurement": "vaginal dryness", "setting": "[1]", "value": "no longer a problem"}, {"measurement": "pregnancy and birth from the mating", "setting": "[2]", "value": "A pregnancy and subsequent birth of an off-spring results"}, {"measurement": "induction of mating (treatment effect)", "setting": "[2]", "value": "the animals engage in sexual intercourse"}, {"measurement": "sexual interest and initiation of sexual activity", "setting": "[3]", "value": "feels more interest in sex and usually initiates sexual activity with their spouse"}, {"measurement": "treatment effect (sexual relationship)", "setting": "[3]", "value": "enjoys a normal sexual relationship"}, {"measurement": "maintenance of erection", "setting": "[4]", "value": "no difficulty maintaining an erection to completion of sexual intercourse"}, {"measurement": "sexual fantasies", "setting": "[4]", "value": "readily has sexual fantasies that are sustained during sexual intercourse"}, {"measurement": "sexual motivation", "setting": "[4]", "value": "feels motivated to initiate sexual activity"}, {"measurement": "treatment effect (sexual relationship)", "setting": "[4]", "value": "enjoys an improved sexual relationship with their partner"}]}]}
